In ChEMBL document CHEMBL2216752, “Carnitine palmitoyltransferase (CPT) modulators: a medicinal chemistry perspective on 35 years of research” (J Med Chem, 2011):
Values belong to the molecule of their own block, whether it stands above or below them.

Experiments:
[1] = Inhibition of FAO in hepatocytes; assay type: cell-based; conditions: hepatocyte
[2] = target: T1, Carnitine O-palmitoyltransferase 2, mitochondrial (Rattus norvegicus, UniProt P18886); assay: Inhibition of rat CPT2
T1 sequence (P18886 whole entry): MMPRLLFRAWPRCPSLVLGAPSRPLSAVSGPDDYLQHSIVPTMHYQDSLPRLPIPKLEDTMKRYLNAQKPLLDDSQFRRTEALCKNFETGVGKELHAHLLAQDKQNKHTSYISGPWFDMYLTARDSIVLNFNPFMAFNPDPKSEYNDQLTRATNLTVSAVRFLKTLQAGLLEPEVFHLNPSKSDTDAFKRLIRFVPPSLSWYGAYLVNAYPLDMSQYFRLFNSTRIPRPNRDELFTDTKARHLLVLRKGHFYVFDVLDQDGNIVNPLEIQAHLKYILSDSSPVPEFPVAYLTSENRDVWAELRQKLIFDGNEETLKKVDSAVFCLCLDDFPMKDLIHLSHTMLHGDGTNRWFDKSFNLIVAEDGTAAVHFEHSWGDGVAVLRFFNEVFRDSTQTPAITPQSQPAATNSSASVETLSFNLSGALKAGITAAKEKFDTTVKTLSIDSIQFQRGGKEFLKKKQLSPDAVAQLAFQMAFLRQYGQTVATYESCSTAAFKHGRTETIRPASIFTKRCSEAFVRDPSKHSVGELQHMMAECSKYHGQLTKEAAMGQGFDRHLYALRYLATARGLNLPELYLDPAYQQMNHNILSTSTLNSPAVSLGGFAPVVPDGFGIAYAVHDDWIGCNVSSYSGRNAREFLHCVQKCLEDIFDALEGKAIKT

[3] = target: T2, Carnitine O-palmitoyltransferase 1, liver isoform (Rattus norvegicus, UniProt P32198); assay: Inhibition of rat CPT1A
T2 sequence (P32198 whole entry): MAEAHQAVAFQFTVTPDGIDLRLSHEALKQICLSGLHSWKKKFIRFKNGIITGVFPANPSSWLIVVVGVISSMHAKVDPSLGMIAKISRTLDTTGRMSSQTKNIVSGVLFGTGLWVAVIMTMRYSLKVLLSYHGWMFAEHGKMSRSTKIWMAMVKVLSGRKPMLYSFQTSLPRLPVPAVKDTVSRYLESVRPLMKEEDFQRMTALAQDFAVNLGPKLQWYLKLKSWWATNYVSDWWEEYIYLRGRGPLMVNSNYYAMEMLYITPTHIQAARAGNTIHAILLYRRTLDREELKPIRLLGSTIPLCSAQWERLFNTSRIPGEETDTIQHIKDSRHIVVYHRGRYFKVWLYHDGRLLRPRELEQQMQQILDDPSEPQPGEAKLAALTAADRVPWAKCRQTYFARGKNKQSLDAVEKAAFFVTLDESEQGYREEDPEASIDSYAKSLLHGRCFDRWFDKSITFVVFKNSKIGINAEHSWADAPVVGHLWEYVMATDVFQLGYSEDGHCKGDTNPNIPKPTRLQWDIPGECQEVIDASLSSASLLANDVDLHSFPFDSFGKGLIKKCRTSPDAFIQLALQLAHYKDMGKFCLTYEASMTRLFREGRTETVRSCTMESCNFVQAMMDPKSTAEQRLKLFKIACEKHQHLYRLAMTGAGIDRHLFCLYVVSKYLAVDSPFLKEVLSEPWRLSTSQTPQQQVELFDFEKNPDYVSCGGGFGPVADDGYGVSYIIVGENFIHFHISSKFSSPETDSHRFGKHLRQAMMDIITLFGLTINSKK

[4] = Inhibition of human FAO
[5] = target: T3, Carnitine O-palmitoyltransferase 1, liver isoform (Homo sapiens) (UniProt P50416); assay: Increase in liver CPT1 activity expressed in yeast mitochondrial extracts
T3 sequence (whole entry): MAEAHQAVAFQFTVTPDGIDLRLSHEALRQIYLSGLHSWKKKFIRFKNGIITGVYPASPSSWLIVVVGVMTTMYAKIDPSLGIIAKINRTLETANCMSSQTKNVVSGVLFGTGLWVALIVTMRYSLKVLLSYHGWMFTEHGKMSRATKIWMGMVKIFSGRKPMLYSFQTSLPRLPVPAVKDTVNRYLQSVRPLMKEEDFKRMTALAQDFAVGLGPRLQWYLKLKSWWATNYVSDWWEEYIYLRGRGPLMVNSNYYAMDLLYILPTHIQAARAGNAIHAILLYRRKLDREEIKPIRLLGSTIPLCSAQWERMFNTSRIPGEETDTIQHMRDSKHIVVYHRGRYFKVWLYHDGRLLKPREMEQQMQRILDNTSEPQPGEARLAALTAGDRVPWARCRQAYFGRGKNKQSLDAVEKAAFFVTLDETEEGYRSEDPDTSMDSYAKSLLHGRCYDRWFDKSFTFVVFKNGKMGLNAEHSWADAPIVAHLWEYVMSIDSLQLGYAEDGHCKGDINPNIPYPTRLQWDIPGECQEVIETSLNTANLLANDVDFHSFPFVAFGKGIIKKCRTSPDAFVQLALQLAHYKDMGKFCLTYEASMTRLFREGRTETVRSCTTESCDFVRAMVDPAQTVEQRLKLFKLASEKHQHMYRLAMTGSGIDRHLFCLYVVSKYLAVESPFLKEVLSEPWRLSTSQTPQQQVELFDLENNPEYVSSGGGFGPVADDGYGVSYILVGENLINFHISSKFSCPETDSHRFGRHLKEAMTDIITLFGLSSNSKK

[6] = target: Carnitine O-palmitoyltransferase 1, liver isoform (Rattus norvegicus) (UniProt P32198); assay: Increase in CPT1 activity in rat hepatocytes using [3H]carnitine by radiometric assay; assay type: cell-based; conditions: Hepatocyte
[7] = target: Carnitine O-palmitoyltransferase 1, muscle isoform (Homo sapiens) (UniProt Q92523); assay: Increase in muscle CPT1 activity expressed in yeast mitochondrial extracts; conditions: Muscle tissue
Hepatocyte = assay: Increase in palmitate oxidation rat hepatocytes a at 80 uM; assay type: functional
Mus musculus [8] = assay: Induction of weight loss in DIO mouse at 15 mg/kg, ip administered single dose measured 20 hrs post dose (reference value: 2 %); assay type: functional; conditions: route intraperitoneal
[9] = Inhibition of rat FAO
Mus musculus [10] = assay: Increase in energy production in DIO mouse at 15 mg/kg, ip administered single dose; assay type: functional; conditions: route intraperitoneal
[11] = target: T4, Carnitine O-palmitoyltransferase 1, liver isoform (Homo sapiens, UniProt P50416); assay: Inhibition of CPT1 in liver mitochondria
T4 sequence (P50416 whole entry): T3 sequence (whole entry)

[12] = target: T5, Carnitine O-palmitoyltransferase 2, mitochondrial (Homo sapiens, UniProt P23786); assay: Inhibition of human CPT2
T5 sequence (P23786 whole entry): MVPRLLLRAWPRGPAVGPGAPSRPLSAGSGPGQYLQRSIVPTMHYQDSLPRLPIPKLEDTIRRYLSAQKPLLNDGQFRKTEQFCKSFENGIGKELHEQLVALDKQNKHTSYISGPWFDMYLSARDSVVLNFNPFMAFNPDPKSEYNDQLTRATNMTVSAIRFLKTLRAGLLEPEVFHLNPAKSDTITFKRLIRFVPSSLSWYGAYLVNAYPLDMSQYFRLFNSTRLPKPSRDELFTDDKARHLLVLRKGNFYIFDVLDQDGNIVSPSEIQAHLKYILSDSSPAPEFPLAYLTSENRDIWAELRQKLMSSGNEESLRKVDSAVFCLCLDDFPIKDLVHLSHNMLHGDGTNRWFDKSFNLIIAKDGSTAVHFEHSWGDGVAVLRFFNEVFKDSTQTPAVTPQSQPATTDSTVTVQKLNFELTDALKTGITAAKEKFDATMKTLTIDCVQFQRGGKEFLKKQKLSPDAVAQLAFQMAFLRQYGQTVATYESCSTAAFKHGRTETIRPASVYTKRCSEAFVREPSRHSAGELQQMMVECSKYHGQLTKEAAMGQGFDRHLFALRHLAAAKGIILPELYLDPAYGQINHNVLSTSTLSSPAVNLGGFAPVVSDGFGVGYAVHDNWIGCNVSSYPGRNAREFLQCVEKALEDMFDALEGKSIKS

[13] = target: T2, Carnitine O-palmitoyltransferase 1, liver isoform; assay: Inhibition of CPT1 in rat liver mitochondria using [3H]carnitine by radiometric method
[14] = target: T6, Carnitine O-palmitoyltransferase 1, muscle isoform (Homo sapiens, UniProt Q92523); assay: Inhibition of human CPT1B
T6 sequence (Q92523 whole entry): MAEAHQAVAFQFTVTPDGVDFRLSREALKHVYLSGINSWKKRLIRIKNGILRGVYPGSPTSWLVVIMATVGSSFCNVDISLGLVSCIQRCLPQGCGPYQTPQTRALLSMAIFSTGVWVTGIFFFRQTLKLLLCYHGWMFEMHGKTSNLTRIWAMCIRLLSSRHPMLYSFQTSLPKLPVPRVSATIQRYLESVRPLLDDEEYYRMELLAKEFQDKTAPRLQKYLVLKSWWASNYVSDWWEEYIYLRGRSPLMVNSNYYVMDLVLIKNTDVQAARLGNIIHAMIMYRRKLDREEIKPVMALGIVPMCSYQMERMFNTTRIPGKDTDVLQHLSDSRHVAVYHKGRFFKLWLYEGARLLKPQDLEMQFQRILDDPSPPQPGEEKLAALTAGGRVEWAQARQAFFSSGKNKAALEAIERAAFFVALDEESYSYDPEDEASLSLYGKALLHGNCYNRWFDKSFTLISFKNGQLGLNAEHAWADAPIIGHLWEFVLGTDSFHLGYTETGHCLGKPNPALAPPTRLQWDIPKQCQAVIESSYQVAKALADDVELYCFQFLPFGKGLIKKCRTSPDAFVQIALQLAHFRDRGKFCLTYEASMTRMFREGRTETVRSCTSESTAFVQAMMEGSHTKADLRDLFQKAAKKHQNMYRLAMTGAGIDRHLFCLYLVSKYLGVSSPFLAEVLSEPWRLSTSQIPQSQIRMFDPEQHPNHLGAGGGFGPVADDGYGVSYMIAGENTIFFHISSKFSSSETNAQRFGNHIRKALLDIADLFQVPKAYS

[15] = target: T4, Carnitine O-palmitoyltransferase 1, liver isoform; assay: Inhibition of human CPT1A
[16] = target: T1, Carnitine O-palmitoyltransferase 2, mitochondrial; assay: Inhibition of CPT2 in rat mitochondria using [3H]carnitine by radiometric method
[17] = target: Carnitine O-palmitoyltransferase 1, muscle isoform (Rattus norvegicus) (UniProt Q63704); assay: Inhibition of CPT1 in rat cardiac mitochondria using [3H]carnitine by radiometric method
Sequence of Carnitine O-palmitoyltransferase 1, muscle isoform (Rattus norvegicus) (Q63704 whole entry, looked up, canonical isoform): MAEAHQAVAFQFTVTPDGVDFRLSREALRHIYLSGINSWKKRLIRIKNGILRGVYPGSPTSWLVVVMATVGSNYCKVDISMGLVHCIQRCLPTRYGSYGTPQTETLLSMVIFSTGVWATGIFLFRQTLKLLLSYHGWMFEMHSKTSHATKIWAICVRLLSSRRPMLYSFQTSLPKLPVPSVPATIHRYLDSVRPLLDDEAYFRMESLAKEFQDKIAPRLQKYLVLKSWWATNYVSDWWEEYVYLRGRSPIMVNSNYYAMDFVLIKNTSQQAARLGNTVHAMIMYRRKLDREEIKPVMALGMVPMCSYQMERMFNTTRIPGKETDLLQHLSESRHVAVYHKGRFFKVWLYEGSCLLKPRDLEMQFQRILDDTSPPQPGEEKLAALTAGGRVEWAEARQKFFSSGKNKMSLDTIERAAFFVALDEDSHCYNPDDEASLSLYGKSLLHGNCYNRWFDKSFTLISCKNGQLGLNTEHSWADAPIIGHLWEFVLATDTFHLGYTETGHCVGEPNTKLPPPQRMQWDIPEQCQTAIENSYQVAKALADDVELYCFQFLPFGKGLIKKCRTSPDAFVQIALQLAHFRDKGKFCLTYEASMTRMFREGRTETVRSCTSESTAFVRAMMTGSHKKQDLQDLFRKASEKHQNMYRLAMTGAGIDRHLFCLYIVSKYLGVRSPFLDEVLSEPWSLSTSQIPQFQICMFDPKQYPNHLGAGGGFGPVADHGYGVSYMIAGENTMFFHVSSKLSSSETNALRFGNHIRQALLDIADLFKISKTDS

Compound: CCCCCCOc1cccc(OCCCCCC(=O)NC2(CC(=O)[O-])CC[N+](C)(C)CC2)c1
IC50 [1]: 19 µM

Compound: C=C1C(=O)O[C@H](CCCCCCCC)[C@H]1C(=O)O
IC50 [4]: 21.9 µM | Activity [5]: 20% | Activity [6]: 250% | Activity [7]: 20% | Activity (Hepatocyte): 750% | Activity (Mus musculus [8]): 4.4% | IC50 [9]: > 100 µM | Activity (Mus musculus [10]): 32.9%

Compound: COc1ccc(CN2CCN(CCCSc3cc(C(C)(C)C)c(O)c(C(C)(C)C)c3)CC2)c(OC)c1OC
IC50 [11]: 51 µM

Other lines, results leading:

IC50 [2]: > 10 µM | IC50 [3]: > 10 µM
Compound: CCCCc1ccc(NC(=O)OCCN2CCCCC2CC(C2CCCCC2)C2CCCCC2)cc1 (stereo not given)

IC50 [12]: 72.8 µM | IC50 [13]: 148 µM | IC50 [14]: > 100 µM | IC50 [4]: 22.4 µM | IC50 [15]: > 100 µM | IC50 [16]: 79 µM | IC50 [17]: 77 µM | IC50 [9]: 21.4 µM
Compound: C1CCC(C(CC2CCCCN2)C2CCCCC2)CC1 (stereo not given) [PERHEXILINE]
